Measured values from US6914045B2, “Glycopeptide antibiotics” (Wyeth Holdings Corporation, priority 2001, dated 2005).
Converted amounts (≈) assume the structure as drawn.

Experiments:
Staphylococcus sp. = assay: in vitro antibacterial evaluation, MIC by broth dilution; type: cell-based
In short: (§1)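 Read-out: the lowest concentration at which the test strain fails to grow. Serial dilutions (64-0.06 μg/mL) in Muller-Hinton II […], 5×10^5 CFU/mL inoculum, NCCLS M7-A2 procedure.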

Enterococcus sp. = assay: as above; type: cell-based; settings: broth dilution, 18 hours at 35° C.
In short: as §1

[1] = tested on: Staphylococcus aureus-SMITH (GC 4543); assay: acute lethal infection in mice; type: in vivo; settings: acute lethal infection, female CD-1 mice, intraperitoneal challenge, intravenous 30 min. after infection, 7 day survival
Method: Methods for in Vivo Antibacterial Evaluation
The therapeutic effects of glycopeptide antibiotics of Formula I are determined against acute lethal infections with S. aureus (strain Smith), a penicillin resistant strain of S. pneumoniae (strain GC 1894), and a vancomycin resistant strain of E. fecalis (strain GC 6189 and GC 2246). Female mice, CD-1 (Charles River Laboratories), 20+/−2 gm, are challenged by intraperitoneal injection of sufficient bacteria (suspended in /trypticase Soy Broth or hog gastric mucin) to kill non-treated controls within 24-48 hr. Antibacterial agents, contained in 0.2 mL of saline or 5% dextrose solution, are administered intravenously 30 min. after infection. Five mice are treated at each dose level. The 7 day survival ratios from 3 separate tests are pooled for calculation of median effective dose (ED50).

Escherichia coli = assay: in vitro antibacterial evaluation, MIC by broth dilution; type: cell-based; settings: 18 hours at 35° C.
In short: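 Broth dilution MIC per NCCLS M7-A2 in Mueller-Hinton II medium, inoculum 5×10^5 CFU/mL, antibiotic range 64-0.06 μg/mL. MIC taken as lowest concentration inhibiting growth.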

[2] = broth dilution, 18 hours at 35° C.
[3] = strain ATCC 29213; broth dilution, 18 hours at 35° C.
[4] = strain GC 1131; broth dilution, 18 hours at 35° C.
[5] = strain GC 4535; broth dilution, 18 hours at 35° C.
[6] = strain GC 4536; broth dilution, 18 hours at 35° C.
[7] = Enterococcus faecalis (ATCC 29212)
[8] = Enterococcus faecalis (GC 4552)

Compound	MIC Coagulase Negative Staphylococcus (GC 4537) (Staphylococcus sp.; [2]) [µg/mL]	MIC Coagulase Negative Staphylococcus (GC 4538) (Staphylococcus sp.; [2]) [µg/mL]	MIC Coagulase Negative Staphylococcus (GC 4547) (Staphylococcus sp.; [2]) [µg/mL]	MIC Staphylococcus aureus (ATCC 29213) (Staphylococcus sp.; [3]) [µg/mL]	MIC Staphylococcus aureus (GC 1131) (Staphylococcus sp.; [4]) [µg/mL]	MIC Staphylococcus aureus (GC 4535) (Staphylococcus sp.; [5]) [µg/mL]	MIC Staphylococcus aureus-SMITH (GC 4536) (Staphylococcus sp.; [6]) [µg/mL]	MIC Enterococcus faecalis (ATCC 29212) (Enterococcus sp.; [7]) [µg/mL]	MIC Enterococcus faecalis (GC 4552) (Enterococcus sp.; [8]) [µg/mL]	MIC Enterococcus faecalis (ATCC 29212) (Enterococcus sp.) [µg/mL]	MIC Enterococcus faecalis (GC 2242) (Enterococcus sp.) [µg/mL]	MIC Enterococcus faecalis (GC 4552) (Enterococcus sp.) [µg/mL]	median effective dose (ED50), Staphylococcus aureus-SMITH (GC 4543) [1] [mg/kg]	MIC Escherichia coli (GC 4559) (Escherichia coli) [µg/mL]	MIC Escherichia coli (GC 4560) (Escherichia coli) [µg/mL]	also measured
CCCCCC(=O)OCC1OC(OC2C(CO)OC(Oc3ccc(CC4NC(=O)C(C(C)c5ccccc5)NC(=O)CNC(=O)C(CO)NC(=O)C(C(O)C5CNC(=N)N5C5OC(CO)C(O)C(O)C5O)NC(=O)C(C(O)C5CNC(=N)N5)NC4=O)cc3)C(O)C2O)C(O)C(O)C1O (stereo not drawn) [Example 95b, Cyclo[glycyl-β-methylphenylalanyl-O-[4-O-(6-O-hexanoylhexopyranosyl)hexopyranosyl]-tyrosyl-3-(2-iminoimidazolidin-4-yl)seryl-3-(3-hexopyranosyl-2-iminoimidazolidin-4-yl)-serylseryl]]	2 (≈ 1.44 µM)	1 (≈ 0.718 µM)	1 (≈ 0.718 µM)	1 (≈ 0.718 µM)	1 (≈ 0.718 µM)	2 (≈ 1.44 µM)	1 (≈ 0.718 µM)	4 (≈ 2.87 µM)	8 (≈ 5.74 µM)	4 (≈ 2.87 µM)	8 (≈ 5.74 µM)	8 (≈ 5.74 µM)	4	64 (≈ 45.9 µM)	<0.5	MIC Coagulase Negative Staphylococcus (GC 4537) (Staphylococcus sp.; strain GC 4537; broth dilution, 18 hours at 35° C.): 2 µg/mL (≈ 1.44 µM); MIC Coagulase Negative Staphylococcus (GC 4538) (Staphylococcus sp.; strain GC 4538; broth dilution, 18 hours at 35° C.): 1 µg/mL (≈ 0.718 µM); MIC Coagulase Negative Staphylococcus (GC 4547) (Staphylococcus sp.; strain GC 4547; broth dilution, 18 hours at 35° C.): 1 µg/mL (≈ 0.718 µM); MIC Enterococcus faecalis (GC 2242) (Enterococcus sp.; strain GC 2242): 8 µg/mL (≈ 5.74 µM)
CCCCCCC(=O)OCC1OC(OC2C(CO)OC(Oc3ccc(CC4NC(=O)C(C(C)c5ccccc5)NC(=O)CNC(=O)C(CO)NC(=O)C(C(O)C5CNC(=N)N5C5OC(CO)C(O)C(O)C5O)NC(=O)C(C(O)C5CNC(=N)N5)NC4=O)cc3)C(O)C2O)C(O)C(O)C1O (stereo not drawn) [Example 97b, Cyclo[glycyl-β-methylphenylalanyl-O-[4-O-(6-O-heptanoylhexopyranosyl)hexopyranosyl]-tyrosyl-3-(2-iminoimidazolidin-4-yl)seryl-3-(3-hexopyranosyl-2-iminoimidazolidin-4-yl)-serylseryl]]	1 (≈ 0.711 µM)	1 (≈ 0.711 µM)	1 (≈ 0.711 µM)	1 (≈ 0.711 µM)	1 (≈ 0.711 µM)	1 (≈ 0.711 µM)	0.5 (≈ 0.355 µM)	4 (≈ 2.84 µM)	4 (≈ 2.84 µM)	4 (≈ 2.84 µM)	2 (≈ 1.42 µM)	4 (≈ 2.84 µM)	8	32 (≈ 22.7 µM)	1 (≈ 0.711 µM)	MIC Coagulase Negative Staphylococcus (GC 4537) (Staphylococcus sp.; broth dilution, 18 hours at 35° C.; strain GC 4537): 1 µg/mL (≈ 0.711 µM); MIC Coagulase Negative Staphylococcus (GC 4538) (Staphylococcus sp.; broth dilution, 18 hours at 35° C.; strain GC 4538): 1 µg/mL (≈ 0.711 µM); MIC Coagulase Negative Staphylococcus (GC 4547) (Staphylococcus sp.; broth dilution, 18 hours at 35° C.; strain GC 4547): 1 µg/mL (≈ 0.711 µM); MIC Enterococcus faecalis (GC 2242) (Enterococcus sp.; Enterococcus faecalis (GC 2242)): 2 µg/mL (≈ 1.42 µM)
